According to PubChem BioAssay AID248 (DTP/NCI, 2004):
Where “and” joins values, the source holds several entries; their conditions need not be identical. Equal entries are not always repeated. Toxic doses and inconclusive results are not listed. Cut-off read from the data, not from the text of the source: active = T/C of 150% or more; inactive = T/C below 125%.

Test system: L1210 leukemia ip in BDF1 mice, survival T/C
Assay: NCI In Vivo Anticancer Drug Screen. Data for tumor model L1210 Leukemia (intraperitoneal) in B6D2F1 (BDF1) mice
Details: endpoint: mean survival time, higher = longer survival
Outline: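 Ratio derived from survival: compound-dosed mice over vehicle-dosed mice, all bearing a transplantable tumor.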

[1] = dose: 25.0 mg/kg/injection, schedule: Q01DX009 (ip), vehicle: Klucel (hydroxypropylcellulose) (HPC)
[2] = dose: 50.0 mg/kg/injection, schedule: Q01DX009 (ip), vehicle: Klucel (hydroxypropylcellulose) (HPC)
[3] = dose: 100.0 mg/kg/injection, schedule: Q01DX009 (ip), vehicle: Klucel (hydroxypropylcellulose) (HPC)
[4] = dose: 200.0 mg/kg/injection, schedule: Q01DX009 (ip), vehicle: Klucel (hydroxypropylcellulose) (HPC)
[5] = dose: 400.0 mg/kg/injection, schedule: Q01DX009 (ip), vehicle: Klucel (hydroxypropylcellulose) (HPC)
[6] = dose: 100.0 mg/kg/injection, schedule: Q01DX001 (ip), vehicle: saline
[7] = dose: 200.0 mg/kg/injection, schedule: Q01DX001 (ip), vehicle: saline
[8] = dose: 400.0 mg/kg/injection, schedule: Q01DX001 (ip), vehicle: saline
[9] = dose: 100.0 mg/kg/injection, schedule: Q01DX001 (ip), vehicle: saline with Tween-80
[10] = dose: 200.0 mg/kg/injection, schedule: Q01DX001 (ip), vehicle: saline with Tween-80
[11] = dose: 400.0 mg/kg/injection, schedule: Q01DX001 (ip), vehicle: saline with Tween-80
[12] = dose: 100.0 mg/kg/injection, schedule: Q04DX003 (ip), vehicle: saline
[13] = dose: 200.0 mg/kg/injection, schedule: Q04DX003 (ip), vehicle: saline
[14] = dose: 100.0 mg/kg/injection, schedule: Q04DX002 (ip), vehicle: saline with Tween-80
[15] = dose: 100.0 mg/kg/injection, schedule: Q04DX003 (ip), vehicle: Klucel (hydroxypropylcellulose) (HPC)
[16] = dose: 200.0 mg/kg/injection, schedule: Q04DX003 (ip), vehicle: Klucel (hydroxypropylcellulose) (HPC)
[17] = dose: 100.0 mg/kg/injection, schedule: Q04DX002 (ip), vehicle: Klucel (hydroxypropylcellulose) (HPC)
[18] = dose: 200.0 mg/kg/injection, schedule: Q04DX002 (ip), vehicle: Klucel (hydroxypropylcellulose) (HPC)
[19] = dose: 400.0 mg/kg/injection, schedule: Q04DX002 (ip), vehicle: Klucel (hydroxypropylcellulose) (HPC)
[20] = dose: 100.0 mg/kg/injection, schedule: Q01DX009 (ip), vehicle: saline with Tween-80
[21] = dose: 100.0 mg/kg/injection, schedule: Q04DX003 (ip), vehicle: saline with Tween-80
[22] = dose: 200.0 mg/kg/injection, schedule: Q01DX009 (ip), vehicle: saline with Tween-80
[23] = dose: 200.0 mg/kg/injection, schedule: Q04DX003 (ip), vehicle: saline with Tween-80
[24] = dose: 50.0 mg/kg/injection, schedule: Q01DX009 (ip), vehicle: saline with Tween-80
[25] = dose: 10.0 mg/kg/injection, schedule: Q01DX001 (ip), vehicle: saline
[26] = dose: 40.0 mg/kg/injection, schedule: Q01DX001 (ip), vehicle: saline

Measured: T/C

Cc1cccc(Cl)c1NC(=O)Nc1cccc(C(=O)O)c1
inactive: [1] 100 % of control | [2] 87 % of control | [3] 90 % of control | [4] 86 % of control | [5] 91 % of control

O=C1OC2=C(c3ccccc3)C(=O)OC2=C1c1ccccc1
inactive: [6] 97 % of control | [7] 104 % of control | [8] 95 % of control

CCC(Cl)COP(=O)(OC(c1ccc(Cl)c(Cl)c1)P(=O)(OCC(Cl)CC)OCC(Cl)CC)C(CC)CCl (stereo unspecified)
inactive: [9] 104 % of control | [10] 95 % of control | [11] 101 % of control

CCN(CC)CC(C)OC(=O)c1ccc(N)cc1 (stereo unspecified)
inactive: [12] 103 % of control | [13] 101 % of control

CCCC(C=O)(CCN1CCCC1)c1cccc2ccccc12 (stereo unspecified)
inactive: dose: 25.0 mg/kg/injection, schedule: Q04DX002 (ip), vehicle: saline with Tween-80 100 % of control | dose: 50.0 mg/kg/injection, schedule: Q04DX002 (ip), vehicle: saline with Tween-80 94 % of control | [14] 88 % of control

C/C(=N/NC(=O)C1CCCO1)c1ccc(C)cc1 (stereo unspecified)
inactive: dose: 12.5 mg/kg/injection, schedule: Q01DX009 (ip), vehicle: Klucel (hydroxypropylcellulose) (HPC) 104 % of control | [1] 102 % of control

O=C(Nc1ccccc1F)Nc1ccccc1Cl
inactive: [1] 95 % of control | [2] 104 % of control | [3] 96 % of control | [15] 87 % of control | [4] 93 % of control and 92 % of control | [16] 89 % of control | [5] 95 % of control and 91 % of control

Cc1cc(C)c(NC(=O)Nc2cccc(Cl)c2)c(C)c1
inactive: [3] 100 % of control | [15] 101 % of control | [4] 105 % of control | [16] 94 % of control | dose: 400.0 mg/kg/injection, schedule: Q04DX003 (ip), vehicle: Klucel (hydroxypropylcellulose) (HPC) 89 % of control

N#C/C(=C/Cc1ccc(Cl)cc1)Nc1ccccc1C(N)=O
inactive: dose: 12.5 mg/kg/injection, schedule: Q01DX001 (ip), vehicle: Klucel (hydroxypropylcellulose) (HPC) 101 % of control | dose: 25.0 mg/kg/injection, schedule: Q01DX001 (ip), vehicle: Klucel (hydroxypropylcellulose) (HPC) 101 % of control | dose: 50.0 mg/kg/injection, schedule: Q01DX001 (ip), vehicle: Klucel (hydroxypropylcellulose) (HPC) 102 % of control | dose: 75.0 mg/kg/injection, schedule: Q04DX003 (ip), vehicle: Klucel (hydroxypropylcellulose) (HPC) 104 % of control | dose: 115.0 mg/kg/injection, schedule: Q04DX003 (ip), vehicle: Klucel (hydroxypropylcellulose) (HPC) 104 % of control | dose: 170.0 mg/kg/injection, schedule: Q04DX003 (ip), vehicle: Klucel (hydroxypropylcellulose) (HPC) 98 % of control

S=C(Nc1ccc(Cl)cc1)Nc1ccc(-c2ccc(NC(=S)Nc3ccc(Cl)cc3)cc2)cc1
inactive: [17] 107 % of control | [18] 100 % of control | [19] 89 % of control

CCCCCCCCC(=O)Nc1nc2c(ncn2C2OC(COC(C)=O)C(OC(C)=O)C2OC(C)=O)c(=O)[nH]1 (stereo unspecified)
inactive: dose: 100.0 mg/kg/injection, schedule: Q01DX005 (ip), vehicle: saline 92 % of control and 97 % of control | dose: 200.0 mg/kg/injection, schedule: Q01DX005 (ip), vehicle: saline 111 % of control and 97 % of control

C=C1C(=O)O[C@@H]2/C=C(\C)CC/C=C(/C)CC[C@@H]12
inactive: dose: 50.0 mg/kg/injection, schedule: Q01DX001 (ip), vehicle: saline 101 % of control | [6] 86 % of control | [7] 93 % of control | [8] 86 % of control

Cn1cc(C(=Nc2ccccc2)Nc2ccccc2)c2ccccc21
inactive: dose: 75.0 mg/kg/injection, schedule: Q01DX001 (ip), vehicle: saline 94 % of control | dose: 150.0 mg/kg/injection, schedule: Q01DX001 (ip), vehicle: saline 94 % of control | dose: 300.0 mg/kg/injection, schedule: Q01DX001 (ip), vehicle: saline 89 % of control

O=CC(O)C(O)C(OC1OC(CO)C(O)C(O)C1O)C(O)CO (stereo unspecified) (tested in a mixture with another compound)
inactive: dose: 75.0 mg/kg/injection, schedule: Q01DX009 (ip), vehicle: carboxymethylcellulose (CMC) 105 % of control | [9] 94 % of control and 98 % of control | dose: 100.0 mg/kg/injection, schedule: Q01DX009 (ip), vehicle: carboxymethylcellulose (CMC) 98 % of control | [20] 94 % of control | [14] 108 % of control [middle of 4 runs] | [21] 97 % of control and 108 % of control | dose: 150.0 mg/kg/injection, schedule: Q01DX009 (ip), vehicle: carboxymethylcellulose (CMC) 105 % of control | [10] 98 % of control and 105 % of control | dose: 200.0 mg/kg/injection, schedule: Q01DX009 (ip), vehicle: carboxymethylcellulose (CMC) 105 % of control | [22] 100 % of control | dose: 200.0 mg/kg/injection, schedule: Q04DX002 (ip), vehicle: saline with Tween-80 97 % of control [middle of 4 runs] | [23] 91 % of control and 92 % of control | dose: 300.0 mg/kg/injection, schedule: Q01DX009 (ip), vehicle: carboxymethylcellulose (CMC) 100 % of control | [11] 93 % of control and 92 % of control | dose: 400.0 mg/kg/injection, schedule: Q01DX009 (ip), vehicle: carboxymethylcellulose (CMC) 96 % of control | dose: 400.0 mg/kg/injection, schedule: Q04DX002 (ip), vehicle: saline with Tween-80 96 % of control and 92 % of control and 94 % of control | dose: 400.0 mg/kg/injection, schedule: Q04DX003 (ip), vehicle: saline with Tween-80 101 % of control and 92 % of control

CC(C)(C)NSc1nc2ccccc2s1
inactive: [24] 97 % of control | [20] 94 % of control | [22] 98 % of control

CC(C)C(=O)Nc1cccnc1
inactive: [25] 100 % of control | dose: 20.0 mg/kg/injection, schedule: Q01DX001 (ip), vehicle: saline 103 % of control | [26] 94 % of control

CSc1nc2[nH]cc(C(=O)O)c(=O)c2c(=O)[nH]1
inactive: [12] 104 % of control | [13] 101 % of control | dose: 400.0 mg/kg/injection, schedule: Q04DX003 (ip), vehicle: saline 91 % of control

CCCCCCCCCCCCCCCCC(C(=O)O)C(O)(CC(=O)O)C(=O)O (stereo unspecified)
inactive: dose: 19.0 mg/kg/injection, schedule: Q01DX Z (ip), vehicle: carboxymethylcellulose (CMC) 92 % of control | dose: 37.5 mg/kg/injection, schedule: Q01DX Z (ip), vehicle: carboxymethylcellulose (CMC) 92 % of control | dose: 75.0 mg/kg/injection, schedule: Q01DX Z (ip), vehicle: carboxymethylcellulose (CMC) 86 % of control and 87 % of control | dose: 150.0 mg/kg/injection, schedule: Q01DX Z (ip), vehicle: carboxymethylcellulose (CMC) 88 % of control

CCNCC(=O)Nc1ccccc1C(=O)OCC
inactive: dose: 222.0 mg/kg/injection, schedule: Q01DX Z (ip), vehicle: saline 113 % of control | dose: 333.0 mg/kg/injection, schedule: Q01DX Z (ip), vehicle: saline 102 % of control

COC(=O)N1C=C2C(C)=CC1C(C#N)(C#N)C2(C#N)C#N (stereo unspecified)
inactive: [25] 105 % of control and 87 % of control | [26] 98 % of control

N#CCCN1CCC(=O)c2ccccc21
inactive: [6] 101 % of control | [7] 98 % of control | [8] 101 % of control

O=C(Cc1ccccc1)Nc1cccc(Cl)c1
inactive: [3] 100 % of control | [4] 86 % of control | [5] 95 % of control

Cc1nc2c(=O)n(C)c(=O)n(C)c2n1C
inactive: [24] 101 % of control | [20] 98 % of control | [21] 100 % of control | [22] 100 % of control | [23] 98 % of control

CC(=O)Nc1ccc(F)c(F)c1
inactive: [17] 98 % of control | [18] 113 % of control | [19] 121 % of control
